Experimental findings from patent publication US10092570B2 (Incyte Corporation, priority 2011, dated 2018) are described below.

pIC50: −log10 of the molar value. Structures can show the parent of a compound that is named as a salt.

Chain of PI3Kδ (p110δ/p85α) (O00329 whole entry): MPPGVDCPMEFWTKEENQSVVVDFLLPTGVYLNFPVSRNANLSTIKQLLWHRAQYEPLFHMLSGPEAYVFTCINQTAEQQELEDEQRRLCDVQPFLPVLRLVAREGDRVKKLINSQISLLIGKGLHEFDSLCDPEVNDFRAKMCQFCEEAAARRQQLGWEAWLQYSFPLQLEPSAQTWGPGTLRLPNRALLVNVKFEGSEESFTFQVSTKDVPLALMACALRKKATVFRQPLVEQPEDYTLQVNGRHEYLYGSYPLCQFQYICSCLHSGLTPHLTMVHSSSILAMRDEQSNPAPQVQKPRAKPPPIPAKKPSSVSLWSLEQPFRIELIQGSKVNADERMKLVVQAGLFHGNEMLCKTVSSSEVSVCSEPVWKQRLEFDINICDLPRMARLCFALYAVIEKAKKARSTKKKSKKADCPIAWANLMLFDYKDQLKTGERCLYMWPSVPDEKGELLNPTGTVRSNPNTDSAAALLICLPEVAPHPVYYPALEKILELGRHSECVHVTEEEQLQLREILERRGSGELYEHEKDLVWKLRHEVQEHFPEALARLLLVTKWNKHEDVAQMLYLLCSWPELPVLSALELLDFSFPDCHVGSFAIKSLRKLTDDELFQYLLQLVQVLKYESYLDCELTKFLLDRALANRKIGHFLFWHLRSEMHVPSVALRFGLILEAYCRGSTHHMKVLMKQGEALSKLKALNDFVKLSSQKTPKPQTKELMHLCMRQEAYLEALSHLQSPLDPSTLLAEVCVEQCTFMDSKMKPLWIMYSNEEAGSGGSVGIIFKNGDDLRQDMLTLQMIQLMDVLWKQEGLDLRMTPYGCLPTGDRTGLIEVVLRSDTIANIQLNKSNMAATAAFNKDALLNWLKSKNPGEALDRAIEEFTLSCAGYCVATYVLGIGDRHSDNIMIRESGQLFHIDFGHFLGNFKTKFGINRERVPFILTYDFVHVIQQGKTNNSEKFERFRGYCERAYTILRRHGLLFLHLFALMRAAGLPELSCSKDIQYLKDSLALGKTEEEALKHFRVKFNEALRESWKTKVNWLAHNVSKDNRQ
Chain of PI3Kδ (p110δ/p85α) (P27986 whole entry partner): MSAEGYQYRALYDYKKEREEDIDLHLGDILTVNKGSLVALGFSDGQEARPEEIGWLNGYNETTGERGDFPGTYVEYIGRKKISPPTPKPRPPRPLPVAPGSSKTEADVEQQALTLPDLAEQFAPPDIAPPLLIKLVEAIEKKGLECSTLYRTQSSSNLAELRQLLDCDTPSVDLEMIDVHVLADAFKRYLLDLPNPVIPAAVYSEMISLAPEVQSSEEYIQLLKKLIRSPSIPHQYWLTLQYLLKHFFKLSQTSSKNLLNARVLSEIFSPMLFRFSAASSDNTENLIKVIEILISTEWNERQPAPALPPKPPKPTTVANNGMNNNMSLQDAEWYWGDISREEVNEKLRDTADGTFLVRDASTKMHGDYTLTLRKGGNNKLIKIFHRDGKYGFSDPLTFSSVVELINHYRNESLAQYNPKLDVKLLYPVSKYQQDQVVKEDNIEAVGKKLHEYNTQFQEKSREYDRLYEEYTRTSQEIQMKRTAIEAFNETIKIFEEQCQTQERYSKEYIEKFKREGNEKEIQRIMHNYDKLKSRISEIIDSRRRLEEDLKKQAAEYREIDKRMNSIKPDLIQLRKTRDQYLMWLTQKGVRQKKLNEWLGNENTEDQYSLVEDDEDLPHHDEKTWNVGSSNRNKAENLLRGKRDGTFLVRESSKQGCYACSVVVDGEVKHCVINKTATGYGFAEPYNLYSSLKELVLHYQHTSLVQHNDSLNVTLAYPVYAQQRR

The target in this experiment is PI3Kδ (p110δ/p85α) (Homo sapiens (Human), UniProt O00329). The experiment is described as follows: Example A3: PI3Kδ scintillation proximity assay. The experiment is classed as biochemical. The conditions noted are these: scintillation proximity assay, 20 μM ATP, 4 nM PI3Kδ; read-out: PI3Kδ SPA IC50. How it is done:
[γ-^33P]ATP (10 mCi/mL) was purchased from Perkin-Elmer (Waltham, Mass.). […] PI3Kδ (p110δ/p85α) was purchased from Millipore (Bedford, Mass.). ATP, MgCl2, DTT, EDTA, MOPS and CHAPS were purchased from Sigma-Aldrich (St. Louis, Mo.). Wheat Germ Agglutinin (WGA) YSi SPA Scintillation Beads was purchased from GE healthcare life sciences (Piscataway, N.J.).
The kinase reaction was conducted in polystyrene 384-well matrix white plate from Thermo Fisher Scientific in a final volume of 25 μL. Inhibitors were first diluted serially in DMSO and added to the plate wells before the addition of other reaction components. The final concentration of DMSO in the assay was 0.5%. The PI3K assays were carried out at room temperature in 20 mM MOPS, pH 6.7, 10 mM MgCl2, 5 mM DTT and CHAPS 0.03%. Reactions were initiated by the addition of ATP, the final reaction mixture consisted of 20 μM PIP2, 20 μM ATP, 0.2 μCi [γ-^33P] ATP, 4 nM PI3Kδ. […] 25 mM EDTA, 400 μM ATP. The final concentration of SPA beads was 1.0 mg/mL. After the plate sealing, plates were shaken overnight at room temperature and centrifuged at 1800 rpm for 10 minutes, the radioactivity of the product was determined by scintillation counting on Topcount (Perkin-Elmer). IC50 determination was performed by fitting the curve of percent control activity versus the log of the inhibitor concentration using the GraphPad Prism 3.0 software.
On the technique in general: Scintillation proximity formats need no separation of bound from free tracer.
Regarding `CNC(=O)c1cc(-c2c(C)c(Cl)cc(C(C)n3nc(C)c4c(N)ncnc43)c2OC)ccn1` (racemic) [Example 17, 4-(3-(1-(4-amino-3-methyl-1H-pyrazolo[3,4-d]pyrimidin-1-yl)ethyl)-5-chloro-2-methoxy-6-methylphenyl)-N-methylpicolinamide], the pIC50 (usually the negative decadic logarithm of the IC50, by convention in mol/L) was greater than 8.00. With `CCOc1c(C(C)n2nc(C)c3c(N)ncnc32)cc(Cl)c(C#N)c1N1CC(OC)C1` (stereo not shown) [Example 319, 4-[1-(4-amino-3-methyl-1H-pyrazolo[3,4-d]pyrimidin-1-yl)ethyl]-6-chloro-3-ethoxy-2-(3-methoxyazetidin-1-yl)benzonitrile], the pIC50 is greater than 8.00. Regarding `CCOc1c(C(C)n2nc(C)c3c(N)ncnc32)cc(Cl)c(C#N)c1C1CNC1` (single isomer, unassigned) [Example 212, 4-[1-(4-Amino-3-methyl-1H-pyrazolo[3,4-d]pyrimidin-1-yl)ethyl]-2-azetidin-3-yl-6-chloro-3-ethoxybenzonitrile], the pIC50 was greater than 8.00. To `CCOc1c(C(C)n2nc(-c3cncc(C#N)c3)c3c(N)ncnc32)cc(Cl)c(C)c1-c1ccc(C(=O)N(C)C)nc1` (stereo not shown) [Example 57, 5-(3-{1-[4-amino-3-(5-cyanopyridin-3-yl)-1H-pyrazolo[3,4-d]pyrimidin-1-yl]ethyl}-5-chloro-2-ethoxy-6-methylphenyl)-N,N-dimethylpyridine-2-carboxamide tris(trifluoroacetate)] belongs greater than 8.00; to `COc1c(C(C)n2nc(C)c3c(N)ncnc32)cc(Cl)c(F)c1C1CN(C)C1` (stereo not shown) [Example 72], greater than 8.00. To `COc1c(C(C)n2nc(C)c3c(N)ncnc32)cc(Cl)c(C#N)c1C1CN(C2CCOCC2)C1` (single isomer, unassigned) [Example 277, 4-[1-(4-Amino-3-methyl-1H-pyrazolo[3,4-d]pyrimidin-1-yl)ethyl]-6-chloro-3-methoxy-2-[1-(tetrahydro-2H-pyran-4-yl)azetidin-3-yl]benzonitrile] belongs greater than 8.00; to `CNC(=O)CCc1c(C)c(Cl)cc(C(C)n2nc(C)c3c(N)ncnc32)c1OC` (single isomer, unassigned) [Example 179, 3-(3-(1-(4-Amino-3-methyl-1H-pyrazolo[3,4-d]pyrimidin-1-yl)ethyl)-5-chloro-2-methoxy-6-methylphenyl)-N-methylpropanamide 2,2,2-trifluoroacetate], greater than 8.00. To `CCNC(=O)c1c(C)c(Cl)cc(C(C)n2nc(-c3ccc4oc(N)nc4c3)c3c(N)ncnc32)c1OCC` (racemic) [Example 89, 3-(1-(4-Amino-3-(2-aminobenzo[d]oxazol-5-yl)-1H-pyrazolo[3,4-d]pyrimidin-1-yl)ethyl)-5-chloro-2-ethoxy-N-ethyl-6-methylbenzamide] belongs greater than 8.00. As for `CCOc1c(C(C)n2nc(C)c3c(N)ncnc32)cc(C)c(C#N)c1C1CN(C(C)C)C1` (racemic) [Example 320, 4-[1-(4-amino-3-methyl-1H-pyrazolo[3,4-d]pyrimidin-1-yl)ethyl]-3-ethoxy-2-(1-isopropylazetidin-3-yl)-6-methylbenzonitrile], the pIC50 is greater than 8.00. For the compound `CCOc1c(C(C)n2nc(C)c3c(N)ncnc32)cc(Cl)c(C#N)c1C1CN(CC2CC2)C1` (single isomer, unassigned) [Example 217, 4-[1-(4-Amino-3-methyl-1H-pyrazolo[3,4-d]pyrimidin-1-yl)ethyl]-6-chloro-2-[1-(cyclopropylmethyl)azetidin-3-yl]-3-ethoxybenzonitrile], the pIC50 was greater than 8.00. Take `COc1c(C(C)n2nc(C)c3c(N)ncnc32)cc(Cl)c(C)c1-c1ccc(C(=O)N(C)C)nc1` (stereo not shown) [Example 11, 5-{3-[1-(4-Amino-3-methyl-1H-pyrazolo[3,4-d]pyrimidin-1-yl)ethyl]-5-chloro-2-methoxy-6-methylphenyl}-N,N-dimethylpyridine-2-carboxamide bis(trifluoroacetate)]: the negative-log IC50 (pIC50) is greater than 8.00. Turning to `CCOc1c(C(C)n2nc(I)c3c(N)ncnc32)cc(Cl)c(C)c1-c1ccc(C(=O)N(C)C)nc1` (racemic) [Example 15, 5-{3-[1-(4-Amino-3-iodo-1H-pyrazolo[3,4-d]pyrimidin-1-yl)ethyl]-5-chloro-2-ethoxy-6-methylphenyl}-N,N-dimethylpyridine-2-carboxamide], the pIC50 is greater than 8.00. To `COc1c(C(C)n2nc(C)c3c(N)ncnc32)cc(Cl)c(C)c1C1CN(C2CCOCC2)C1` (racemic) [Example 64, 1-(1-{5-chloro-2-methoxy-4-methyl-3-[1-(tetrahydro-2H-pyran-4-yl)azetidin-3-yl]phenyl}ethyl)-3-methyl-1H-pyrazolo[3,4-d]pyrimidin-4-amine] belongs greater than 8.00.

As for `COc1c(C(C)n2nc(C)c3c(N)ncnc32)cc(Cl)c(C#N)c1C1CN(S(C)(=O)=O)C1` (single isomer, unassigned) [Example 285, 4-[1-(4-Amino-3-methyl-1H-pyrazolo[3,4-d]pyrimidin-1-yl)ethyl]-6-chloro-3-methoxy-2-[1-(methylsulfonyl)azetidin-3-yl]benzonitrile], the negative logarithm of the IC50 (pIC50) is greater than 8.00.

Consider `COc1c(C(C)n2nc(C)c3c(N)ncnc32)cc(Cl)c(C)c1-c1ccc(C(=O)NCCO)nc1` (stereo not shown) [Example 23, 5-(3-(1-(4-amino-3-methyl-1H-pyrazolo[3,4-d]pyrimidin-1-yl)ethyl)-5-chloro-2-methoxy-6-methylphenyl)-N-(2-hydroxyethyl)picolinamide trifluoroacetate], for which the pIC50 is greater than 8.00. `CCOc1c(C(C)n2nc(C)c3c(N)ncnc32)cc(Cl)c(C#N)c1-c1ccc(-c2nnc(C)o2)nc1` (racemic) [Example 338, 4-[1-(4-amino-3-methyl-1H-pyrazolo[3,4-d]pyrimidin-1-yl)ethyl]-6-chloro-3-ethoxy-2-[6-(5-methyl-1,3,4-oxadiazol-2-yl)pyridin-3-yl]benzonitrile]: the pIC50 was greater than 8.00.

For the compound `CCOc1c(C(C)n2nc(C#C[C@@H](C)O)c3c(N)ncnc32)cc(Cl)c(C)c1-c1ccc(C(=O)N(C)C)nc1` (stereo partly drawn) [Example 79, 5-[3-(1-{4-Amino-3-[(3R)-3-hydroxybut-1-yn-1-yl]-1H-pyrazolo[3,4-d]pyrimidin-1-yl}ethyl)-5-chloro-2-ethoxy-6-methylphenyl]-N,N-dimethylpyridine-2-carboxamide bis(trifluoroacetate)], the negative logarithm of the IC50 (pIC50) was greater than 8.00. In the case of `CCNC(=O)c1c(C)c(Cl)cc(C(C)n2nc(C)c3c(N)ncnc32)c1-c1cc(F)cc(F)c1` (racemic) [Example 37, 6-[1-(4-amino-3-methyl-1H-pyrazolo[3,4-d]pyrimidin-1-yl)ethyl]-4-chloro-N-ethyl-3′,5′-difluoro-3-methylbiphenyl-2-carboxamide], the negative logarithm of the IC50 (pIC50) is greater than 8.00.

As for `COc1c(C(C)n2ccc(=O)c3c(N)ncnc32)cc(Cl)c(C)c1C1CN(C(C)C)C1` (racemic) [Example 34, 4-Amino-8-{1-[5-chloro-3-(1-isopropylazetidin-3-yl)-2-methoxy-4-methylphenyl]ethyl}pyrido[2,3-d]pyrimidin-5(8H)-one], the negative-log IC50 (pIC50) was greater than 8.00. On to `CCOc1c(C(C)n2nc(C)c3c(N)ncnc32)cc(Cl)c(C#N)c1C1CN(C(C)CO)C1` (single isomer, unassigned) [Example 224, 4-[1-(4-Amino-3-methyl-1H-pyrazolo[3,4-d]pyrimidin-1-yl)ethyl]-6-chloro-3-ethoxy-2-[1-(2-hydroxy-1-methylethyl)azetidin-3-yl]benzonitrile], for which the pIC50 is greater than 8.00.

Turning to `COc1c(C(C)n2nc(C)c3c(N)ncnc32)cc(C)c(C#N)c1C1CN(CC(C)(C)O)C1` (stereo not drawn) [Example 328, 4-[-1-(4-amino-3-methyl-1H-pyrazolo[3,4-d]pyrimidin-1-yl)ethyl]-2-[l-(2-hydroxy-2-methylpropyl)azetidin-3-yl]-3-methoxy-6-methylbenzonitrile], the negative-log IC50 (pIC50) was greater than 8.00. Turning to `CCOc1c(C(C)n2cc(C)c3c(N)ncnc32)cc(Cl)c(C#N)c1C1CN(C[C@H](C)O)C1` (stereo partly drawn) [Example 309, 4-[1-(4-Amino-5-methyl-7H-pyrrolo[2,3-d]pyrimidin-7-yl)ethyl]-6-chloro-3-ethoxy-2-{1-[(2S)-2-hydroxypropyl]azetidin-3-yl}benzonitrile], the pIC50 is greater than 8.00. To `COc1c([C@H](C)n2nc(C)c3c(N)ncnc32)cc(Cl)c(C#N)c1C1CN(C[C@@H](C)O)C1` [Example 362, 4-((S)-1-(4-amino-3-methyl-1H-pyrazolo[3,4-d]pyrimidin-1-yl)ethyl)-6-chloro-2-(1-((R)-2-hydroxypropyl)azetidin-3-yl)-3-methoxybenzonitrile] belongs greater than 8.00; to `COc1c(C(C)n2nc(C)c3c(N)ncnc32)cc(Cl)c(C)c1C1CN(C)C1` (racemic) [Example 5, 1-{1-[5-chloro-2-methoxy-4-methyl-3-(1-methylazetidin-3-yl)phenyl]ethyl}-3-methyl-1H-pyrazolo[3,4-d]pyrimidin-4-amine], greater than 8.00; to `COc1c(C(C)n2nc(C)c3c(N)ncnc32)cc(Cl)c(C)c1C1CN(C(=O)[C@H](C)O)C1` (single isomer, unassigned) [Example 118], greater than 8.00.
